From PMC6839601, “Discovery of selective, antimetastatic and anti-cancer stem cell metallohelices via post-assembly modification” (Chemical Science, 2019)

How the values were obtained:
MRC-5 pd30 (lung) = assay: Antiproliferative activity (MTT assay), MRC-5 pd30; assay type: cell-based, human; settings: 72 h, mean ± SD, read-out: Cell viability IC50, MRC-5 pd30 (lung)
Description: (§1) The human ovarian carcinoma cisplatin-sensitive A2780 cells, cisplatin-resistant A2780cisR (a cisplatin-resistant variant of A2780 cells), human cervical carcinoma HeLa cells, human breast cancer MCF-7 cells and human colorectal carcinoma cells HCT-116 (for experiments performed at the Czech Academy of Sciences) were kindly supplied by Professor B. Keppler, University of Vienna (Austria). Human colon carcinoma cells expressing p53 (HCT116 p53^+/+) were a kind gift of Dr M. Brazdova, Institute of Biophysics, Brno (Czech Republic). […] These solutions were removed, dimethyl sulfoxide was added to each well, and the absorbance at 540 nm was read using a Thermo Scientific Multiskan EX microplate photometer. The IC50 values were determined from a plot of percentage cell survival against drug concentration (in μM). All assays were conducted in triplicate and the mean IC50 ± standard deviation was determined. page 43: 8. […] Cell survival was determined as the absorbance of treated cells minus the blank cell media, divided by the absorbance of the untreated control; this value was expressed as a percentage. The IC50 values were determined from a plot of percentage cell survival against drug concentration (µM). All assays were conducted in triplicate and the mean IC50 ± standard deviation was determined. […]

A2780cisR (ovarian) = assay: Antiproliferative activity (MTT assay), A2780cisR; assay type: cell-based, human; settings: 72 h, mean ± SD, read-out: Cell viability IC50, A2780cisR (ovarian)
Description: as §1

[1] = tested on: HCT116 p53+/+ colon cancer cells; assay: Antiproliferative activity (MTT assay), HCT116 p53+/+; assay type: cell-based, human; settings: cells treated for 96 h, mean ± SD, read-out: Cell viability IC50, HCT116 p53+/+ (colon)
Description: as §1

HMF (breast) = assay: Antiproliferative activity (MTT assay), HMF; assay type: cell-based; settings: cells treated for 96 h, mean ± SD, read-out: Cell viability IC50, HMF (breast)
Description: as §1

[2] = tested on: ARPE-19 (non-cancerous) cells; assay: Antiproliferative activity (MTT assay), ARPE-19; assay type: cell-based, human; settings: cells treated for 96 h, mean ± SD, read-out: Cell viability IC50, ARPE-19 (retinal)
Description: as §1

HCT116 p53-/- (colon) = assay: Antiproliferative activity (MTT assay), HCT116 p53-/-; assay type: cell-based, human
Description: as §1

WI-38 (lung) = assay: Antiproliferative activity (MTT assay), WI-38; assay type: cell-based; settings: cells treated for 96 h, mean ± SD, read-out: Cell viability IC50, WI-38 (lung)
Description: as §1

HCT116 p53+/+ cells = assay: Inhibition of HCT116 colonosphere formation; assay type: cell-based, human; settings: IC30 for 72 h, then 6 days
Method: Cells were treated with drug (IC30 concentration) for 72 h, washed, harvested with StemPro Accutase, and plated in ultra-low attachment 96-well culture plates (300 cells per well). Cells were cultured in for 6 days without disturbing the plates or replenishing the medium and the number/size of spheres were determined using an inverted microscope.
10. Anti-cancer stem cell study
10.1 Inhibition of HCT116 colonsphere formation
HCT116 p53+/+ (adherent) cells were treated with  Δ-[Fe 2L13]Cl4,  Δ-[Fe 2L3a3]Cl4 and
salinomycin (at their IC30 values) for 72 h. Cells were then washed with PBS, harvested by
StemProAccutase (Gibco) and plated in ultralow-attachment 96w culture plates (Corning)
(300cells per well). Cells were cultured in DMEM/F12 supplemented with B27 (-vitA, Gibco,
ngmL-1 FGF2 (Sigma, F0291) for 6 days without disturbing the plates and without replenishing
(§2) the medium. The number and size of spheres were determined using an inverted microscope.
Supplementary Table 3. Quantification of colonospheres formation in HCT116 p53+/+ cells untreated or treated […]
aThe results are expressed as mean ± SD of three independent experiments.
Supplementary Figure 27. Quantification of colonosphere formation in HCT116 p53+/+ colonospheres untreated
or treated with the investigated compounds at their respective IC30 values for 72 h. The results are expressed as […]

HCT116.CD133- cells = assay: Inhibition of HCT116.CD133- colonosphere formation; assay type: cell-based, human; settings: IC30 values for 6 days
Method: (§3) Supplementary Figure 28. Representative images of the HCT116 p53 +/+ colonospheres untreated or treated
(§4) with the investigated compounds at their respective IC 30 values for 72 h. Scale bars: 100 µm.
(§5) colonosphere formation similarly or more effectively than  Δ-[Fe 2L13]Cl4 and salinomycin, a
(§6) well-established CSC-potent agent.
(§7) 10.2 Separation of HCT116.CD133 + and HCT116.CDD133 - cells by magnetically
(§8) activated cell sorting (MACS)
(§9) Positive selection with a single marker of CD133/1 (AC133) was used to enrich for CSCs. The
(§10) cells were harvested by non-enzymatic Cell Stripper (Corning), prepared into single cell
(§11) suspension (30 µm strainer) and counted. Approx. 2×10^7 cells were obtained for cell sorting.
(§12) For a selection of CD133 single positive cells, the cells were stained with the APC-conjugated
(§13) incubated for 20 min at 4-8 °C. The cells were washed with buffer (PBS, 0.5% BSA, pH 7.2;
(§14) prepared by diluting MACS BSA Stock Solution (130-091-376) 1:20 with auto MACS Rinsing
(§15) Solution (130-091-222)) and incubated with Anti-APC Micro Bead (Miltenyi Biotec, 130-090- […]
(§16) three-times in Buffer and analyzed on BD FACSVerse flow cytometer (San Jose, CA, USA);
(§17) the data were analyzed using BD FACSSuite software.
(§18) Supplementary Figure 29. Representative histograms displaying the red fluorescence emitted by anti-CD133- […]
as §2

HCT116.CD133+ cells = assay: Inhibition of HCT116.CD133+ colonosphere formation; assay type: cell-based, human; settings: IC30 values for 6 days
Method: as §3, §4, §5, §6, §7, §8, §9, §10, §11, §12, §13, §14, §15, §16, §17, §18, §2

[3] = tested on: CSC enriched HCT116.CD133+ cells; assay: Cytotoxicity in HCT116.CD133+ cells, SRB assay; assay type: cell-based; settings: Homo sapiens, 72 h, read-out: IC50 HCT116.CD133+
Description: Supplementary Figure 30. Growth inhibitory effects in HCT116.CD133- and HCT116.CD133+ cancer cells.
Representative microscopy images of the HCT116.CD133- colonospheres in the absence (a) and presence of […]
salinomycin (b), Δ-[Fe 2L13]Cl4 (c), and Δ-[Fe 2L3a3]Cl4 (d), treated at their respective IC30 values for 6 days (scale […]
bar: 100 µm). Quantification of colonosphere formation from HCT116.CD133+ (e) and HCT116.CD133- (f,g) […]
under the same conditions. Data represent the mean value and SD from three independent experiments. p < 0.01, […]
10.5 Cytotoxicity in HCT116.CD133 + cells, SRB assay
Sorted HCT116.CD133+ cells were plated in 96w culture plates (TPP) (3000 cells per well) […]
and cultured for 3 days to allow cells to recover after sorting and to grow to the desired density.
Cells were then treated with different concentrations of the investigated compounds, […]
with Tris base (pH 10.5). The absorbance at 570 nm was measured using a SUNRISE Tecan […]
absorbance reader (Schoeller). The IC50 values were calculated from curves constructed by […]
plotting cell survival (%) versus drug concentration (μM). The reading values were converted […]
to the percentage of control (% cell survival). Cytotoxic effects were expressed as IC 50. […]
determined with SRB assay. a […]
aThe cells were treated for 72 h. The results are expressed as mean ± SD of three independent experiments. […]

HCT116p53+/+ = assay: Cytotoxicity in HCT116 p53+/+ cells, SRB assay; assay type: cell-based; settings: Homo sapiens, HCT-116, 72 h, read-out: IC50 HCT116p53+/+

SMILES | IC50 (MRC-5 pd30 (lung)) | IC50 (A2780cisR (ovarian)) | IC50 [1] | IC50 (HMF (breast)) | IC50 [2] | loss of activity towards HCT116 p53-/- cells relative to p53+/+ isogenic clones (HCT116 p53-/- (colon); HCT116 p53-/- vs p53+/+ (Table 1)) | IC50 (HCT116 p53-/- (colon); MTT, cells treated for 96 h, mean ± SD, read-out: Cell viability IC50, HCT116 p53-/- (colon)) | IC50 (WI-38 (lung)) | Diameter of colonospheres (HCT116 p53+/+ cells; control 96 ± 20) | Spheres/1000cells (HCT116 p53+/+ cells; control 224 ± 14) | inhibition of colonosphere formation from HCT116.CD133- cells (HCT116.CD133- cells) | inhibition of colonosphere formation from HCT116.CD133+ cells (HCT116.CD133+ cells) | IC50 [3] | IC50 (HCT116p53+/+)
N.N.[Cl][Pt][Cl] [Cisplatin, cisplatin] | 12 ± 1 µM | 20 ± 3 µM | 3.3 ± 0.4 µM | 18 ± 2 µM | 6.4 ± 1 µM | > 2 fold | 7.5 ± 0.7 µM | 2.2 ± 0.8 µM |  |  |  |  |  | 
CC[C@@H](C(=O)[C@@H](C)[C@@H](O)[C@H](C)[C@@H]1O[C@@H]([C@@H](CC)C(=O)O)CC[C@@H]1C)[C@H]1O[C@]2(C=C[C@@H](O)[C@]3(CC[C@@](C)([C@H]4CC[C@](O)(CC)[C@H](C)O4)O3)O2)[C@H](C)C[C@@H]1C [Salinomycin, salinomycin] |  |  |  |  |  |  |  |  | 76 ± 17 µm | 142 ± 14 | do not significantly inhibit | effectively inhibit | 1.12 ± 0.23 µM | 1.48 ± 0.21 µM
